Data taken from patent US7744889B2, “Alpha, beta-unsaturated sulfoxides for treating proliferative disorders” (Temple University - Of The Commonwealth System of Higher …, priority 2003, dated 2010).

Legend:
DU145, BT20, H157, DLD1 = assay: Effect on tumor cell lines, viability by Trypan blue exclusion after 96 hours; type: cell-based; conditions: concentration required for 50% growth inhibition vs vehicle (DMSO) treated cells, doses 10 nM to 5 μM, one class for the four cell lines
Protocol: The effect of the α,β-unsaturated sulfoxides according to Formula I on tumor cells of prostate, colon, lung and breast origin was examined by utilizing the following cell lines: prostate tumor cell line DU-145; colorectal carcinoma cell line DLD-1; non-small cell lung carcinoma cell line H157; and breast tumor cell line BT-20. BT-20 is an estrogen-unresponsive cell line. BT-20, DLD-1 and H157 were grown in Dulbecco's modified Eagle's medium (DMEM) containing 10% fetal bovine serum supplemented with penicillin and streptomycin. DU145 was cultured in RPMI with 10% fetal bovine serum containing penicillin and streptomycin. NIH/3T3 (normal murine fibroblasts) and HFL-1cells (normal diploid human lung fibroblasts) were grown in DMEM containing 10% calf serum supplemented with penicillin and streptomycin.
Cells were plated at density levels of 1.0×10^5 cells per well in six-well plates. Cell cultures were maintained at 37° C. in a humidified atmosphere of 5% CO2.
Cells were treated with compounds of the invention at doses ranging from 10 nM to 5 μM concentration, and cell viability was determined after 96 hours by the Trypan blue exclusion method.
Values are reported as the GI50, i.e., the concentration (μM) required for 50% growth inhibition as compared to vehicle (DMSO) treated cells. The values reported in Table 7 are: ***=10-100 nM; **=100 nM-1μM; and *=>1μM.
Cells were treated with the test compound at concentrations in the range from 10 nM to 5 μM, and cell viability was determined after 96 hours by the Trypan blue exclusion method.

| GI50 (DU145, BT20, H157, DLD1) [µM] | melting point [°C] | Compound |
| --- | --- | --- |
| 0.01 to 0.1 | 112 to 115 | COc1cc(OC)c(/C=C/[S+]([O-])Cc2ccc(OC)c(O)c2)c(OC)c1 (stereo not drawn) [Example 31] |
| 0.01 to 0.1 | 136 to 140 | COc1cc(OC)c(/C=C/[S+]([O-])Cc2ccc(OC)c(N)c2)c(OC)c1 (stereo not drawn) [Example 33, (E)-2,4,6-trimethoxystyryl-4-methoxy-3-aminobenzylsulfoxide] |

Further lines, the compound ahead of its results:

| Compound | GI50 (DU145, BT20, H157, DLD1) [µM] | melting point [°C] |
| --- | --- | --- |
| COc1ccc(C[S+]([O-])/C=C/c2c(OC)cc(OC)cc2OC)cc1 (stereo not drawn) [Example 29] | 0.1 to 1 | 92 to 94 |
| COc1cc(OC)c(/C=C/[S+]([O-])Cc2ccc(OC)c([N+](=O)[O-])c2)c(OC)c1 (stereo not drawn) [Example 30] | > 1 | 140 to 146 |
| O=C(O)c1ccc(/C=C/[S+]([O-])Cc2ccc(Cl)cc2)cc1 (stereo not drawn) [Example 32] |  | 270 to 274 |
